Read-outs that look alike come from different tables or passages of the source.
System: human FXN
Experiment: FXN mRNA expression by qRT-PCR in GM15850 cells after 48 hr compound treatment
Assay type: cell-based
Settings: read-out: EC50 WT (nM, 48 hr)
Method: Cell culture: Cells were cultured in RPMI1640 medium+15% FBS. Cells were maintained at a density between 2e5/mL and 1e6/mL. Cells were centrifuged, resuspended in fresh medium, counted and plated at 150,000 cells per well in 100 uL in a non-coated, flat bottom tissue culture plate.
Compound treatment: 10 mM stock solution of FA GeneTAC was diluted 1:10 in DMSO followed by a 1:100 dilution in growth medium. […] Compound was then diluted at a 1:3 ratio into growth medium containing 0.01% DMSO. 5-point, 3-fold dose response curve was generated. 11 μL of 10× compound was added to wells containing 100 μL cell suspension of GM15850. 11 μL growth medium containing 0.01% DMSO was added to all wells not treated with FA GeneTAC. Cells were allowed to incubate for 48 hrs prior to cell lysis using guanidine isothiocyanate solution.
RNA isolation: Total RNA was isolated and purified in 384-well column filter plates using chaotropic salt.
qRT-PCR: qRT-PCR reactions were assembled using AgPath-ID reagents (Thermo Fisher) using 6 uL mastermix and 4 μL RNA. qRT-PCR TaqMan primer probe sets against human FXN (Assay ID Hs01075496_m1) and human GAPDH (Assay ID Hs00266705_g1) were used to measure the intended targets. qRT-PCR was run on the ThermoFisher QuantStudio 6 PRO instrument using the manufacturer's recommended cycling conditions.
Data analysis: qPCR data was analyzed using Thermo Fisher Design and Analysis software. Data was exported to Excel and hFXN expression was normalized to hGAPDH expression.

[1] = Homo sapiens, GM15850 cells, 48 hr incubation, hFXN normalized to hGAPDH
[2] = GM15850 cells, 48 hr incubation, hFXN normalized to hGAPDH

Row | Compound | EC50 [1] | other results
1 | Cc1sc2c(c1C)C(c1ccc(Cl)cc1)=N[C@@H](CC(=O)Nc1ccc(OCCOCCOCCOCCOCCOCCC(=O)NCCCCCCCNC(=O)CCNC(=O)c3nc(NC(=O)CCNC(=O)c4cc(NC(=O)c5nc(NC(=O)CCNC(=O)c6cc(NC(=O)c7nccn7C)cn6C)cn5C)cn4C)cn3C)cc1)c1nnc(C)n1-2 [Compound 59] | < 100 nM | 
2 | CC(=O)N1c2ccc(-c3ccc(C(=O)NCCOCCOCCOCCOCCOCCOCCOCCOCCNC(=O)c4cc(NC(=O)c5nc(NC(=O)CCNC(=O)c6cc(NC(=O)c7nc(NC(=O)CCNC(=O)COCCOCCOCCN8CCN(CC9CCNCC9)CC8)cn7C)cn6C)cn5C)cn4C)cc3)cc2[C@H](Nc2ccc(Cl)cc2)C[C@@H]1C [Compound 73] | > 500 nM | 
3 | Cc1sc2c(c1C)C(c1ccc(Cl)cc1)=N[C@@H](CC(=O)Nc1cncc(OCCOCCOCCOCCOCCOCCOCCOCCOCCNC(=O)CCNC(=O)c3nc(NC(=O)CCNC(=O)c4cc(NC(=O)c5nc(NC(=O)CCNC(=O)c6cc(NC(=O)c7nccn7C)cn6C)cn5C)cn4C)cn3C)c1)c1nnc(C)n1-2 [Compound 103] | < 100 nM | 
4 | Cc1noc(C)c1-c1cnc2c(-c3ccc(C(=O)NCCOCCOCCOCCOCCOCCOCCOCCOCCNC(=O)CCNC(=O)c4nc(NC(=O)CCNC(=O)c5cc(NC(=O)c6nc(NC(=O)CCNC(=O)c7cc(NC(=O)c8nccn8C)cn7C)cn6C)cn5C)cn4C)cc3)cn([C@@H](C)c3ccccn3)c2c1 [Compound 42] | < 100 nM | 
5 | CC(=O)N1c2ccc(-c3ccc(C(=O)NCCOCCOCCOCCOCCOCCOCCOCCOCCNC(=O)c4nc(NC(=O)CCNC(=O)c5cc(NC(=O)c6nc(NC(=O)CCNC(=O)c7cc(NC(=O)c8nc(NC(=O)CCNC(=O)[C@H](CCCNC(=N)N)NC(=O)[C@@H](N)CCCNC(=N)N)cn8C)cn7C)cn6C)cn5C)cn4C)cc3)cc2[C@H](Nc2ccc(Cl)cc2)C[C@@H]1C [Compound 90] |  | EC50 [2]: 100 to 500 nM
6 | CC(=O)N1c2ccc(-c3ccc(C(=O)NCCOCCOCCOCCOCCOCCOCCOCCNC(=O)CCNC(=O)c4nc(NC(=O)CCNC(=O)c5cc(NC(=O)c6nc(NC(=O)CCNC(=O)c7cc(NC(=O)c8nccn8C)cn7C)cn6C)cn5C)cn4C)cc3)cc2[C@H](Nc2ccc(Cl)cc2)C[C@@H]1C [Compound 35, N-(5-((3-((2-((1-(4-((2S,4R)-1-acetyl-4-((4-chlorophenyl)amino)-2-methyl-1,2,3,4-tetrahydroquinolin-6-yl)phenyl)-1,27-dioxo-5,8,11,14,17,20,23-heptaoxa-2,26-diazanonacosan-29-yl)carbamoyl)-1-methyl-1H-imidazol-4-yl)amino)-3-oxopropyl)carbamoyl)-1-methyl-1H-pyrrol-3-yl)-1-methyl-4-(3-(1-methyl-4-(1-methyl-1H-imidazole-2-carboxamido)-1H-pyrrole-2-carboxamido)propanamido)-1H-imidazole-2-carboxamide] | < 100 nM | 
7 | Cc1sc2c(c1C)C(c1ccc(Cl)cc1)=N[C@@H](CC(=O)Nc1ccc(OCCOCCOCCOCCOCCOCCOCCOCC(=O)NCCNC(=O)CCNC(=O)c3nc(NC(=O)CCNC(=O)c4cc(NC(=O)c5nc(NC(=O)CCNC(=O)c6cc(NC(=O)c7nccn7C)cn6C)cn5C)cn4C)cn3C)cc1)c1nnc(C)n1-2 [Compound 17] | < 100 nM | 
8 | Cc1sc2c(c1C)C(c1ccc(Cl)cc1)=N[C@@H](CC(=O)Nc1ccc(OCCOCCOCCNC(=O)[C@H](CCCNC(=N)N)NC(=O)[C@H](CCCNC(=N)N)NC(=O)CCOCCOCCOCCNC(=O)CCNC(=O)c3nc(NC(=O)CCNC(=O)c4cc(NC(=O)c5nc(NC(=O)CCNC(=O)c6cc(NC(=O)c7nccn7C)cn6C)cn5C)cn4C)cn3C)cc1)c1nnc(C)n1-2 [Compound 99] |  | EC50 (Homo sapiens, GM15850, 48 h): < 100 nM
9 | Cc1sc2c(c1C)C(c1ccc(Cl)cc1)=N[C@@H](CC(=O)Nc1ccc(OCCOCCOCCOCCOCCOCCC(=O)NCCCN(CCCNC(=O)CCNC(=O)c3nc(NC(=O)CCNC(=O)c4cc(NC(=O)c5nc(NC(=O)CCNC(=O)c6cc(NC(=O)c7nccn7C)cn6C)cn5C)cn4C)cn3C)CC(F)(F)F)cc1)c1nnc(C)n1-2 [Compound 38] |  | EC50 [2]: < 100 nM
10 | Cc1sc2c(c1C)C(c1ccc(Cl)cc1)=N[C@@H](CC(=O)Nc1ccc(OCCOCCOCCOCCOCCOCCOCCOCCNC(=O)CCNC(=O)c3nc(NC(=O)CCNC(=O)c4cc(NC(=O)c5nc(NC(=O)CCNC(=O)c6cc(NC(=O)c7nccn7C)cn6C)cn5C)cn4C)cn3C)cc1)c1nnc(C)n1-2 [Compound 23] | 100 to 500 nM | 
11 | CC(=O)N1c2ccc(C3=CCN(C(=O)COCCOCCOCCOCCOCCOCCOCCNC(=O)CCNC(=O)c4nc(NC(=O)CCNC(=O)c5cc(NC(=O)c6nc(NC(=O)CCNC(=O)c7cc(NC(=O)c8nccn8C)cn7C)cn6C)cn5C)cn4C)CC3)cc2N(Cc2ccccc2CO)C[C@@H]1C1CC1 [Compound 45] | 100 to 500 nM | 
12 | Cc1sc2c(c1C)C(c1ccc(Cl)cc1)=N[C@@H](CC(=O)Nc1ccc(OCCOCCOCCOCCOCCOCCOCCOCCOCCNC(=O)CCNC(=O)c3nc(NC(=O)CCNC(=O)c4cc(NC(=O)c5nc(NC(=O)CCNC(=O)c6cc(NC(=O)c7nccn7C)cn6C)cn5C)cn4C)cn3C)nc1)c1nnc(C)n1-2 [Compound 102] | < 100 nM | 
13 | COC[C@@H](C)n1c(C2CCN(C(=O)COCCOCCOCCOCCOCCOCCOCCOCCNC(=O)CCNC(=O)c3nc(NC(=O)CCNC(=O)c4cc(NC(=O)c5nc(NC(=O)CCNC(=O)c6cc(NC(=O)c7nccn7C)cn6C)cn5C)cn4C)cn3C)CC2)nc2cnc3cc(-c4c(C)noc4C)c(OC)cc3c21 [Compound 44] | 100 to 500 nM | 
14 | CCCNC(=O)c1nc(NC(=O)CCNC(=O)c2cc(NC(=O)c3nc(NC(=O)CCNC(=O)c4cc(NC(=O)c5nc(NC(=O)CCNC(=O)COCCOCCOCCOCCOCCOCCOCCOCCOc6ccc(NC(=O)C[C@@H]7N=C(c8ccc(Cl)cc8)c8c(sc(C)c8C)-n8c(C)nnc87)cc6)cn5C)cn4C)cn3C)cn2C)cn1C [Compound 52] | < 100 nM | 
15 | Cc1sc2c(c1C)C(c1ccc(Cl)cc1)=N[C@@H](CC(=O)Nc1ccc(OCCOCCOCCOCCOCCOCCC(=O)N(C)CCCN(C)CCCN(C)C(=O)CCNC(=O)c3nc(NC(=O)CCNC(=O)c4cc(NC(=O)c5nc(NC(=O)CCNC(=O)c6cc(NC(=O)c7nccn7C)cn6C)cn5C)cn4C)cn3C)cc1)c1nnc(C)n1-2 [Compound 54] | 100 to 500 nM | 
16 | Cc1sc2c(c1C)C(c1ccc(Cl)cc1)=N[C@@H](CC(=O)Nc1ccc(OCCOCCOCCOCCOCCOCCOCCOCCOCCNC(=O)CCNC(=O)c3nc(NC(=O)CCNC(=O)c4cc(NC(=O)c5nc(NC(=O)CCNC(=O)c6cc(NC(=O)c7nccn7C)cn6C)cn5C)cn4C)cn3C)cc1)c1nnc(C)n1-2 [Compound 13] | < 100 nM | 
17 | CCCNC(=O)CCNC(=O)c1nc(NC(=O)CCNC(=O)c2cc(NC(=O)c3nc(NC(=O)CCNC(=O)c4cc(NC(=O)c5nc(NC(=O)COCCOCCOCCOCCOCCOCCOCCOc6ccc(NC(=O)C[C@@H]7N=C(c8ccc(Cl)cc8)c8c(sc(C)c8C)-n8c(C)nnc87)cc6)cn5C)cn4C)cn3C)cn2C)cn1C [Compound 49] | < 100 nM | 
18 | Cc1sc2c(c1C)C(c1ccc(Cl)cc1)=N[C@@H](CC(=O)Nc1ccc(OCCOCCOCCOCCN3CCN(CCOCCOCCOCCNC(=O)CCNC(=O)c4nc(NC(=O)CCNC(=O)c5cc(NC(=O)c6nc(NC(=O)CCNC(=O)c7cc(NC(=O)c8nccn8C)cn7C)cn6C)cn5C)cn4C)CC3)cc1)c1nnc(C)n1-2 [Compound 40] | < 100 nM | 
19 | Cc1sc2c(c1C)C(c1ccc(Cl)cc1)=N[C@@H](CC(=O)Nc1ccc(OCCOCCOCCOCCOCCOCCC(=O)N(C)CCCN(C)CCCNC(=O)CCNC(=O)c3nc(NC(=O)CCNC(=O)c4cc(NC(=O)c5nc(NC(=O)CCNC(=O)c6cc(NC(=O)c7nccn7C)cn6C)cn5C)cn4C)cn3C)cc1)c1nnc(C)n1-2 [Compound 53] | 100 to 500 nM | 
20 | Cc1cc(-c2nc3cnc(C4CCN(C(=O)COCCOCCOCCOCCOCCC(=O)NCCCN(C)CCCNC(=O)CCNC(=O)c5nc(NC(=O)CCNC(=O)c6cc(NC(=O)c7nc(NC(=O)CCNC(=O)c8cc(NC(=O)c9nccn9C)cn8C)cn7C)cn6C)cn5C)CC4)cc3n2[C@@H](C)c2ccccc2)nn(C)c1=O [Compound 19] | < 100 nM | 
21 | COc1ccc2c(c1)C(c1ccc(Cl)cc1)=N[C@@H](CC(=O)Nc1ccc(OCCOCCOCCOCCOCCOCCC(=O)NCCCN(C)CCCNC(=O)CCNC(=O)c3nc(NC(=O)CCNC(=O)c4cc(NC(=O)c5nc(NC(=O)CCNC(=O)c6cc(NC(=O)c7nccn7C)cn6C)cn5C)cn4C)cn3C)cc1)c1nnc(C)n1-2 [Compound 6] | 100 to 500 nM | 
22 | CCCNC(=O)c1nc(NC(=O)CCNC(=O)c2cc(NC(=O)c3nc(NC(=O)CCNC(=O)c4cc(NC(=O)c5nc(NC(=O)CCNC(=O)COCCOCCOCCOCCOCCOCCOCCOc6ccc(NC(=O)C[C@@H]7N=C(c8ccc(Cl)cc8)c8c(sc(C)c8C)-n8c(C)nnc87)cc6)cn5C)cn4C)cn3C)cn2C)cn1C [Compound 51] | < 100 nM | 
23 | CC(=O)N1c2ccc(C3=CCN(C(=O)COCCOCCOCCOCCOCCOCCOCCOCCNC(=O)CCNC(=O)c4nc(NC(=O)CCNC(=O)c5cc(NC(=O)c6nc(NC(=O)CCNC(=O)c7cc(NC(=O)c8nccn8C)cn7C)cn6C)cn5C)cn4C)CC3)cc2N(Cc2ccccc2CO)C[C@@H]1C1CC1 [Compound 46] | 100 to 500 nM | 
24 | CC(=O)N1c2ccc(C3=CCN(C(=O)COCCOCCOCCOCCOCCC(=O)NCCCN(C)CCCNC(=O)CCNC(=O)c4nc(NC(=O)CCNC(=O)c5cc(NC(=O)c6nc(NC(=O)CCNC(=O)c7cc(NC(=O)c8nccn8C)cn7C)cn6C)cn5C)cn4C)CC3)cc2N(Cc2ccccc2CO)C[C@@H]1C1CC1 [Compound 29] |  | EC50 [2]: 100 to 500 nM

— US20240050576A1, “METHODS AND COMPOUNDS FOR THE TREATMENT OF GENETIC DISEASE” (Design Therapeutics, Inc., priority 2020, published 2024)
